Measured values from ChEMBL document CHEMBL5233248, “Resveratrol - A comprehensive review of recent advances in anticancer drug design and development” (Eur J Med Chem, 2020).
Values belong to the molecule of their own block, whether it stands above or below them.

What was measured:
[1] = test system: MDA-MB-231; assay: Anticancer activity against human MDA-MB-231 cells assessed as cell growth inhibition incubated for 24 hrs by MTT assay; type: functional, cell-based; conditions: MDA-MB-231, 24 h
[2] = test system: MCF7; assay: Anticancer activity against human MCF7 cells assessed as cell growth inhibition incubated for 24 hrs by MTT assay; type: functional, cell-based; conditions: MCF7, 24 h
[3] = Selectivity ratio of IC50 for human MDA-MB-231 cells to IC50 for human MCF7 cells
[4] = Cytotoxicity against human MCF-10A cells assessed as cell growth inhibition incubated for 24 hrs by MTT assay; type: toxicity, cell-based
[5] = Selectivity ratio of IC50 for human MCF7 cells to IC50 for human MDA-MB-231 cells; type: toxicity
[6] = test system: A549; assay: Anticancer activity against human A549 cells assessed as cell growth inhibition measured after 72 hrs by MTT assay; type: functional, cell-based; conditions: Homo sapiens, A549, 72 h
[7] = test system: HeLa; assay: Anticancer activity against human HeLa cells assessed as cell growth inhibition measured after 72 hrs by MTT assay; type: functional, cell-based; conditions: Homo sapiens, HeLa, 72 h; read-out: IC50
[8] = Anticancer activity against Lung adenocarcinoma cell line assessed as cell growth inhibition measured after 72 hrs by MTT assay; type: functional, cell-based; conditions: Lung adenocarcinoma cell line, 72 h
[9] = test system: A549; assay: Potency index, ratio of test compound IC50 to Resveratrol IC50 for antiproliferative activity against human A549 cells; type: functional
[10] = test system: HeLa; assay: Anticancer activity against human HeLa cells; type: functional, cell-based
[11] = test system: A549; assay: Anticancer activity against human A549 cells; type: functional, cell-based
[12] = test system: HepG2; assay: Anticancer activity against human HepG2 cells; type: functional, cell-based

IC50 [1]: 48.2 µM | IC50 [2]: 26.3 µM
SMILES: Oc1ccc(-c2ccc3cc(O)ccc3c2)c(O)c1
Ratio IC50 [3]: 1.9 | IC50 at 24 h [4]: > 100 µM | Ratio IC50 [5]: 3.3

IC50 [6]: 4.38 µM | IC50 [7]: 8.16 µM
SMILES: O=S(=O)(Oc1cc(O)cc(/C=C/c2ccc(O)cc2)c1)c1ccccc1
IC50 [8]: 10.2 µM | Ratio IC50 [9]: 15

IC50 [10]: 4.79 µM | IC50 [11]: 3.77 µM | IC50 [12]: 7.49 µM
SMILES: COc1ccc(/C(=C/c2cc(C(F)(F)F)ccc2Cl)C(=O)O)cc1
